From patent US7666848B2, “Thiophene glycoside derivatives, processes for the preparation, medicaments comprising these compounds, and the use thereof” (Sanofi-Aventis Deutschland GmbH, priority 2002, dated 2010)

Test system: rabbit renal cortex brush border membrane vesicles
Assay: Uptake of [14C]-labeled glucose into brush border membrane vesicles (transport assay, membrane filtration method)
Format: biochemical
Settings: transport assay on rabbit renal cortex brush border membrane vesicles; 10 μM [14C]D glucose, 30° C., 15 seconds; β-D-gluco form

SMILES	IC25
COc1ccc(Cc2sc(C(F)(F)F)cc2OC2OC(CO)C(O)C(O)C2O)cc1 (centres unmarked) [Example 54]	1400 nM
COc1ccc(Cc2sccc2OC2OC(CO)C(O)C(O)C2O)cc1 (centres unmarked) [Example 7, 2-Hydroxymethl-6-[2-(4-methoxy-benzyl)-thiophen-3-yloxy]-tetrahydro-pyran-3,4,5-triol]	1100 nM
